Test results taken from US20170127675A1, “COMPOSITIONS AND METHODS FOR CONTROLLING INSECT POPULATIONS” (OLFACTOR LABORATORIES, INC., priority 2014, published 2017).
Counter-ions that a name gives are not always drawn.

Test system: mosquitoes
Assay: Attractive toxic sugar assay
Assay type: in vivo
Details: after three days, dead / total mosquitoes
Description: Experiments were carried out to examine the lethality of compounds of the present invention using an attractive toxic sugar assay. These experiments were carried out in 6 groups according to Table 3. […] The experimental room was conditioned with 75% humidity or higher. Experimental cages were prepared by adding paper towels to the cage bottoms. Cages of mosquitoes were collected (about 25 males and about 25 females per cage), one cage for each sugar bait being tested with an extra cage to use as a sucrose-only control. […] Feeding cups were prepared with 10 ml of experimental sugar bait to a cup. In some experiments, blue food coloring was added to verify sugar consumption in the frass. Bait cups were mixed by gentle swirling and wicks were added through the top. Control bait cups received about 10 ml of prepared 10% sucrose solution (except where otherwise indicated). Heat, humidity as well as humidifier water content were checked each day. Cages were examined daily for dead mosquitoes. The number of dead mosquitoes per gender was recorded each day. Frass content was examined daily and compared with that of sucrose control. After three days, final observations were made and live mosquitoes were removed from each experimental cage and placed into cups for examination under the dissecting scope to determine whether or not female mosquitoes had fed. Once feeding females had been determined for populations from each cage, cups were frozen and discarded. Dead mosquitoes in each cage were counted and the sex of each determined. The relative frass content per cage was compared to that of the sucrose control cage. […] Percent (%) lethality was calculated for each treatment group by dividing the total (male and female) number of dead mosquitoes by the total number of mosquitoes for each.

[1] = sugar conc. 0.10%, about 25 male and 25 female mosquitoes per cage

OC[C@H]1O[C@@H](O[C@H]2O[C@H](CO)[C@@H](O)[C@H](O)[C@H]2O)[C@H](O)[C@@H](O)[C@@H]1O [alpha,beta-trehalose]
% Lethality [1]: 56.2%

C[C@@H]1O[C@@H](OC[C@H]2O[C@@H](Oc3c(-c4ccc(O)c(O)c4)oc4cc(O)cc(O)c4c3=O)[C@H](O)[C@@H](O)[C@@H]2O)[C@H](O)[C@H](O)[C@H]1O [rutin hydrate]
% Lethality [1]: 58% | % Lethality (sugar conc. 0.50%): 45%

sucrose octasulfate aluminum complex
% Lethality [1]: 39.6%

CC1(C)[C@@H](O[C@H]2O[C@H](C(=O)O)[C@@H](O)[C@H](O)[C@H]2O[C@@H]2O[C@H](C(=O)O)[C@@H](O)[C@H](O)[C@H]2O)CC[C@]2(C)[C@H]3C(=O)C=C4[C@@H]5C[C@@](C)(C(=O)O)CC[C@]5(C)CC[C@@]4(C)[C@]3(C)CC[C@@H]12 [glycyrrhizic acid ammonium salt]
% Lethality [1]: 68.3%

O.O.O.O.O.OC[C@H]1O[C@H](OC[C@H]2O[C@H](O[C@]3(CO)O[C@H](CO)[C@@H](O)[C@@H]3O)[C@H](O)[C@@H](O)[C@@H]2O)[C@H](O)[C@@H](O)[C@H]1O [D-(+)-raffinose pentahydrate]
% Lethality [1]: 38.8%

OC[C@H]1O[C@H](OCC2O[C@@H](O)[C@H](O)[C@@H](O)[C@@H]2O)[C@H](O)[C@@H](O)[C@H]1O (stereo partly drawn) [melibiose]
% Lethality [1]: 64.4%

n-acetyl allolactosamine
% Lethality [1]: 44%

O=C(CO)[C@@H](O[C@H]1O[C@H](CO)[C@@H](O)[C@H](O)[C@H]1O)[C@H](O)[C@H](O)CO [D-(+)-turanose]
% Lethality [1]: 66% | % Lethality (sugar conc. 0.50%): 29%

CO[C@@H]1O[C@H](CO)[C@H](O)[C@H](O)[C@H]1O [methyl-beta-D-galactopyranoside]
% Lethality [1]: 65.9% | % Lethality (sugar conc. 0.50%): 43%
